Measured values reported in patent US20110144014A1, “CYTOKINE RECEPTOR MODULATORS AND USES THEREOF” (CENTRE HOSPITALIER UNIVERSITAIRE SAINTE-JUSTINE, priority 2005, published 2011).
Where a SMILES comes first, the peptide text is derived from it. [ ]: non-standard residue; d: D form.

How the values were obtained:
IL-1R/IL-1RacP [1] = molecular target: T1, IL-1R/IL-1RacP (Rattus norvegicus, UniProt Q02955+Q63621); assay: PGE2 levels in rat blood serum after IL-1β; assay type: in vivo; settings: peptide injected directly in the stomach
T1 construct: 300 g Sprague-Dawley rats were anesthetized with isoflurane; from tissue; host or cells: whole animal (Sprague-Dawley rat)
T1 sequence (Q02955 20-576): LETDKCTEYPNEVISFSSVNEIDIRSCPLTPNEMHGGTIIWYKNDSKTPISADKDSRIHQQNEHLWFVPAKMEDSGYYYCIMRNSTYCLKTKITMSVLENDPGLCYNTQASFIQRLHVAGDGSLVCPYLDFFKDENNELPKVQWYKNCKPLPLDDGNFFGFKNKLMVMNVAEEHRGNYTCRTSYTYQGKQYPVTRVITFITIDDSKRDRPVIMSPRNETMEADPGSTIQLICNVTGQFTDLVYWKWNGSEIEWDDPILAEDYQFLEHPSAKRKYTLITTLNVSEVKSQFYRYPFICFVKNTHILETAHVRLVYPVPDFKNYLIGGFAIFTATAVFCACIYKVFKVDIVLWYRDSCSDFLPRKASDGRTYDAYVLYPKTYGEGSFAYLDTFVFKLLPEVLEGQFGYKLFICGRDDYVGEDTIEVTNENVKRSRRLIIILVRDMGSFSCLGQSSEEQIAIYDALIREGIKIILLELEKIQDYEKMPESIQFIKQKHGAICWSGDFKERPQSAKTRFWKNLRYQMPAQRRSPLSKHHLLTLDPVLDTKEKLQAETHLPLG
T1 sequence (Q63621 21-570): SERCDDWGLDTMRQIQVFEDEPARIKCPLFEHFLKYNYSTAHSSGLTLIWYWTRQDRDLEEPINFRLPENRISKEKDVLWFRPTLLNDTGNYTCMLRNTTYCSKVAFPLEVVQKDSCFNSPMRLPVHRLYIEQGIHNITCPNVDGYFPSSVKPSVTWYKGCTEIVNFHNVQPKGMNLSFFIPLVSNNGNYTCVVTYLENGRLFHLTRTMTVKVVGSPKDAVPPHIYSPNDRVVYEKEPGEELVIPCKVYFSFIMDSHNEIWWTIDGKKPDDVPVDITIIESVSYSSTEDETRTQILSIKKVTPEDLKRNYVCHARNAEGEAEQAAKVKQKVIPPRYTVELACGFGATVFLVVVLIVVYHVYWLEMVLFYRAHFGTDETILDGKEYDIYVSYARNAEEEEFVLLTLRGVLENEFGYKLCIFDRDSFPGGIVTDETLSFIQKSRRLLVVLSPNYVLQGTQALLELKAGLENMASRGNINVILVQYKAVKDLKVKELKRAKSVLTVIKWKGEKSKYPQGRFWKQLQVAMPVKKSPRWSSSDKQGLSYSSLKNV
Protocol: Another way of assessing the effect of cytokine receptor subfragments on IL-1R activity in vivo is by measuring PGE2 levels in rat blood serum. Rat blood samples were collected from in vivo experiments (e.g., protocol for IL-1 induced hypotension) and centrifuged at maximum speed for 15 minutes. The serum was then passed through a Waters purification column to isolate the lipidic part. Samples were evaporated and PGE2 quantities were determined with a radioimmuno assay (RIA) using a commercial kit (Cederlane).
(§1) The API-101 derivatives, API-101.10 (and others) were also tested to assess whether they could reverse the physiological actions of the natural ligand in vivo by injecting the derivative through the jugular or directly into the stomach (to verify the stability of the peptide through the digestive tract). Sprague-Dawley rats (300 g) were anesthetized with isoflurane (2.5-4%). The natural ligand (IL-1β) or vehicle (saline) was injected through the jugular vein (5 μg/kg). […] Arterial blood pressure and heart rate were continuously monitored (Gould) while temperature and blood gases (Radiometer) were measured for routine analysis as previously described (Li et al., Am. J. Physiol. 273:R1283-R1290, 1997; Hardy et al., Pediatr. Res. 46:375-382, 1999; Najarian et al., Circ. Res. 87:1149-1156, 2000). […]

IL-1R/IL-1RacP [2] = molecular target: T1, IL-1R/IL-1RacP; assay: IL-1β induced hypotension in rats; assay type: in vivo
Protocol: The goal of the next experiment was to verify whether the identified peptides can reverse the physiological actions of the natural cytokine in vivo either by injecting them through the jugular or directly in the stomach (to verify the stability of the peptide through the digestive tractus). 300 g Sprague-Dawley rats were anesthetized with isoflurane (2.5-4%). IL-1β was injected through the jugular. Blood was taken from the carotid for further analyses before and after (10 minutes) every injection. Peptides were then injected either directly in the stomach with a catheter or in the jugular at the concentration desired. Arterial blood pressure and other physiological characteristics were monitored at all times.
as §1, with “tract).” for “tract). Sprague-Dawley rats (300 g) were anesthetized with isoflurane (2.5-4%). The natural ligand (IL-1β) or vehicle (saline) was injected through the jugular vein (5 μg/kg).”

prevention of PGE2 synthesis in vivo (IL-1R/IL-1RacP [1]): Higher inhibition
reduction of IL-1β induced hypotension (IL-1R/IL-1RacP [2]; directly into the stomach, 10^−5M): 60%
prevention of IL-1β induced hypotension (IL-1R/IL-1RacP [2]; jugular vein injection, 10^−8M, IL-1β 5 μg/kg): 95%
Structure (SMILES): CC(C)C[C@@H](NC(=O)[C@@H](CCC(=O)O)NC(=O)[C@H](NC(=O)[C@H](NC(=O)[C@@H](Cc1ccc(O)cc1)NC(=O)[C@H](N)CCCNC(=N)N)[C@H](C)O)C(C)C)C(=O)N[C@H](C)C(N)=O [API-101.10, RYTVELA] (H-[dR][dY][dT][dV][dE][dL][dA]-NH2; N-terminus and C-terminus assumed)
